Values joined by “and” are separate entries in the source; they are usually repeats but may differ in a detail not shown here. Equal values may be shown once.
What was measured:
[1] = tested on: HEK cells expressing αSA53T-YFP; experiment: MTT reduction assay of HEK cells treated with αS aggregated with or without ligand; format: cell-based, human
Experimental: The aggregation of endogenous monomeric αS-A53T-YFP into fibers can be detected by the intracellular fluorescent puncta (Fig. 3a, + αS). A solution of 100 μM αS was aggregated in the absence and presence of NS132 at an equimolar ratio for four days. The resulting solutions of αS fibers (5 μM in monomeric αS, ±NS132) were introduced to HEK cells in the presence of Lipofectamine 3000 for 24 h. In contrast to the control (no fibers), we observed a significant number of fluorescent inclusions in the presence of αS fibers (Fig. 3a, white arrows, +αS), which was a consequence of the templating of endogenous monomeric αS-A53T-YFP by the exogenously added αS fibers. […] Moreover, we observed the colocalization of an adaptor protein, p62, in the aggresome of αS inclusions in HEK cells (Fig. 3b, +αS, red),[51]–[54]. […] We also quantified the inclusions (αS-A53T-YFP) using a ProteoStat dye-based high throughput 96-well plate reader-based assay recently developed in our lab[24]. […] The viability of HEK cells was measured using the (3-(4,5-dimethylthiazol-2-yl)-2,5-diphenyltetrazolium bromide) (MTT) reduction based assay.
This assay was performed based on a previous protocol with slight modifications. […] The crystals were dissolved with gentle shaking of the plate, and subsequently, the absorbance was measured at 570 nm using an Infinite M200 Pro Plate Reader (Tecan, Grŏdig, Austria). […]

UA196 worms = experiment: Motility assay of UA196 worms; format: in vivo, C. elegans
Experimental: Briefly, all worm strains were bleached at the same time and the eggs were incubated on PLATE 1. On day two, the worms were divided into two batches. […] The liquid media for PLATE 4 A/B was prepared with 67.28% (v/v) of M9 buffer, 75 μM FUDR, 0.1% of 1 M magnesium sulfate (v/v), 0.1% of 1 M calcium chloride (v/v), 2.5% of 1 M potassium phosphate solution (pH 6, v/v), and 30% (v/v) of OP50 (0.5 OD600nm). […] To test the effect of each ligand on disease worm strains (NL5901 or UA196), there were four conditions were used in PLATE 4 A/B: […] The assay was started on day four using the WMicroTracker ARENA plate reader (Phylumtech, Santa Fe, Argentina) at 20 °C for 1 h per day over a 14-day period at intervals of 24 h. The WMicroTracker ARENA plate reader uses a large array of infrared light microbeams in each well of the plate to detect the interference caused by the movement of the worms. The output by the ARENA plate reader is an average of the overall movement of all worms present in each well, which is denoted as the motility of the worms in each well. […] After collecting the data each day, the PLATE 4 A/B was again placed on the shaker (100 rpm) at 20 °C in the incubator. The PLATE 4 A/B was on the on the shaker (100 rpm) at 20 °C in the incubator the whole duration of the experiment except only when the reading was collected on the WMicroTracker ARENA plate reader for 1 h.

`Cc1ccc(NC(=O)c2ccc(NC(=O)c3ccc([N+](=O)[O-])c(NCCc4c[nH]c5ccccc45)n3)c(NCC3CCCCC3)n2)c(OCC(=O)O)n1` [NS132] was tested, and the “relative viability of HEK cells, individual trials” value ([1]; HEK cells + Synuclein fibers aggregated with equimolar NS132, control = 1) was 0.8792 and 0.8235 and 0.899 and 0.8879 and 0.9679 and 0.8608 and 0.7821 and 0.8196 and 0.8279 and 0.7732 and 0.9011 and 0.8063 and 0.8583 and 0.8947 and 0.7357 and 0.8112, the “viability of HEK cells” value ([1]; αS aggregated solution with an equimolar ratio of NS132 (52% with αS alone)) was 85% and the “motility of UA196 worms, in words” value (UA196 worms; 50 µM ligand (day two and day four), during the aging process) was “noticeable rescue”. For the same molecule, the “Motility (activity counts)” value (UA196 worms; UA196+NS132, Day 4, per trial) was 206 and 197 and 180 and 188, the “Motility (activity counts)” value (UA196 worms; UA196+NS132, Day 5, per trial) was 205 and 178 and 179 and 183 and the “Motility (activity counts)” value (UA196 worms; UA196+NS132, Day 6, per trial) was 161 and 191 and 157 and 201. The “Motility (activity counts)” value (UA196 worms; UA196+NS132, Day 7, per trial) was 139 and 152 and 174 and 165, the “Motility (activity counts)” value (UA196 worms; UA196+NS132, Day 8, per trial) was 150 and 125 and 135 and 134 and the “Motility (activity counts)” value (UA196 worms; UA196+NS132, Day 9, per trial) was 143 and 94 and 105 and 78. The “Motility (activity counts)” value (UA196 worms; UA196+NS132, Day 10, per trial) was 97 and 68 and 112, the “Motility (activity counts)” value (UA196 worms; UA196+NS132, Day 13, per trial) was 24 and 17 and 22 and 19 and the “Motility (activity counts)” value (UA196 worms; UA196+NS132, Day 14, per trial) was 19 and 14 and 23.

Reference: paper PMC11061149, “Protein mimetic 2D FAST rescues alpha synuclein aggregation mediated early and post disease Parkinson’s phenotypes” (Nature Communications, 2024)
